In test [1] the test system is Mus musculus. As to the kind of experiment: Percent reduction in plasma blood glucose level was evaluated in mice at a dose of 200 mg/kg/day p.o. for 9 days. As to conditions: route oral. It counts as functional.
Test [2] deals with Mus musculus. In words: Percent reduction in plasma triglyceride level was evaluated in mice at a dose of 200 mg/kg/day p.o. for 9 days. Particulars: route oral. It counts as functional.
In test [3] the test system is Mus musculus. As to the kind of experiment: Percent reduction in plasma triglyceride level was evaluated in mice at a dose of 200 mg/kg/day p.o. for 9 days; not applicable. It counts as functional, organism-based.

The source made the active and inactive calls. No cut-off for these calls is given here.

As to `Cc1c(C)c2c(c(C)c1O)CCC(C)(CN(C)CCOc1ccc(/C=C3\SC(=O)NC3=O)cc1)O2.O=C(O)/C=C\C(=O)O` (stereo not given), the figures for the Reduction with Mus musculus [1] and in the test with Mus musculus [2] were 20% and 60%, respectively.
Consider `Cc1c(C)c2c(c(C)c1O)CCC(C)(COc1ccc(CC3SC(=O)NC3=O)cc1)O2` (stereo not given) [TROGLITAZONE], for which the values for the Reduction in the test on Mus musculus [1] and in the test with Mus musculus [2] were 24% and 50%, respectively.
As for `CC(=O)O.Cc1c(C)c2c(c(C)c1O)CCC(C)(CN(C)CCOc1ccc(/C=C3\SC(=O)NC3=O)cc1)O2` (stereo not given), the Reduction in the test with Mus musculus [1] worked out at 11%; with Mus musculus [2], 31%.
On to `CS(=O)(=O)O.Cc1c(C)c2c(c(C)c1O)CCC(C)(CN(C)CCOc1ccc(/C=C3\SC(=O)NC3=O)cc1)O2` (stereo not given), for which the Reduction in the test with Mus musculus [1] is on record as 20%; with Mus musculus [2], 70%.
`Cc1c(C)c2c(c(C)c1O)C(CN(C)CCOc1ccc(/C=C3\SC(=O)NC3=O)cc1)C(C)(C)O2.O=C(O)/C=C\C(=O)O` (stereo not given): the figures for the Reduction in the test on Mus musculus [1] and with Mus musculus [2] were 35% and 33%, respectively.
With `Cc1c(C)c2c(c(C)c1O)CCC(C)(CNCCOc1ccc(/C=C3\SC(=O)NC3=O)cc1)O2` (stereo not given), the Reduction is reported as 6% in the test on Mus musculus [1] and 29% in the test on Mus musculus [2].
The compound `Cc1c(C)c2c(c(C)c1OCc1ccccc1)C(CN(C)CCOc1ccc(/C=C3\SC(=O)NC3=O)cc1)C(C)(C)O2` (stereo not given) came in with a Reduction with Mus musculus [1] of 23%. Further, the Reduction result in the test on Mus musculus [3] is “inactive”.
For the compound `CCN(CCOc1ccc(/C=C2\SC(=O)NC2=O)cc1)CC1(C)CCc2c(C)c(O)c(C)c(C)c2O1` (stereo not given), the values for the Reduction in the test on Mus musculus [1] and in the test on Mus musculus [2] were 2% and 76%, respectively.
Regarding `Cc1c(C)c2c(c(C)c1O)C(CN(C)CCOc1ccc(/C=C3\SC(=O)NC3=O)cc1)C(C)(C)O2` (stereo not given), the Reduction with Mus musculus [1] is reported as 46%; with Mus musculus [2], 71%.
For `Cc1c(C)c2c(c(C)c1O)C(COc1ccc(CC3SC(=O)NC3=O)cc1)C(C)(C)O2` (stereo not given), the Reduction is recorded as 19% with Mus musculus [1] and 40% with Mus musculus [2].
As to `Cc1c(C)c2c(c(C)c1O)CCC(C)(CN(C)CCOc1ccc(/C=C3\SC(=O)NC3=O)cc1)O2.Cl` (stereo not given), the results for the Reduction in the test with Mus musculus [1] and in the test on Mus musculus [2] were 31% and 30%, respectively.
The matching figures for `Cc1c(C)c2c(c(C)c1O)C(CN(C)CCOc1ccc(CC3SC(=O)NC3=O)cc1)C(C)(C)O2` (stereo not given): 17% and 33%.
The matching figures for `Cc1c(C)c2c(c(C)c1OCc1ccccc1)CCC(C)(CN(C)CCOc1ccc(/C=C3\SC(=O)NC3=O)cc1)O2` (stereo not given): 39% and 32%.
`Cc1c(C)c2c(c(C)c1O)CCC(C)(CN(C)CCOc1ccc(CC3SC(=O)NC3=O)cc1)O2` (stereo not given) displayed a Reduction in the test with Mus musculus [1] of 4%. Also, the Reduction entry in the test on Mus musculus [3] was “inactive”.
For `Cc1c(C)c2c(c(C)c1O)CCC(C)(CN(C)CCOc1ccc(/C=C3\SC(=O)NC3=O)cc1)O2` (stereo not given), the values for the Reduction in the test on Mus musculus [1] and with Mus musculus [2] were 43% and 70%, respectively.

These data come from ChEMBL document CHEMBL1130813, “Novel euglycemic and hypolipidemic agents: Part-2. Antioxidant moiety as structural motif” (1998).
